Columns and labels:
[1] = tested on: NUGC-4 gastric cancer cells; experiment: NUGC-4 gastric tumor xenograft model; assay type: in vivo, athymic nude mice
Excerpt: NUGC-4 cells grow aggressively in nude mice.
Tumor sizes were monitored twice weekly.
When 1×10^7 tumor cells are inoculated in mice, the median survival time of untreated mice is not longer than 25 days. […] Mice were stratified size-dependently into treatment groups (FIG. 21).

[2] = tested on: HEK293~CLDN18.2 transfectants; experiment: Early treatment of HEK293~CLDN18.2 tumor xenografts; assay type: in vivo, nude mice; settings: 200 μg twice per week for 6 weeks
Excerpt: Moreover, advanced tumor treatment experiments were initiated up to 9 days after tumor cell inoculation when tumors had reached volumes of about 60-120 mm^3.
Nude mice were subcutaneously inoculated with 1×10^7 HEK293˜CLDN18.2 transfectants. Treatment of 10 mice per group started 3 days after tumor inoculation. […] Not only time to death was prolonged, but 4 of 10 mice survived the entire observation period of 210 days.

[3] = Toxicity and PK/TK profile studies (any toxicity study); assay type: in vivo, mice and cynomolgus monkeys
Excerpt: This compartimentalization is lost upon malignant transformation rendering the epitope drugable by IMAB362.

[4] = tested on: NUGC-4~CLDN18.2 xenograft tumors; experiment: Combination of IMAB362 and EOF regimen on NUGC-4~CLDN18.2 xenografts; set-up: species or system nude mice; settings: mouse, in vivo
Protocol: Xenograft tumors were inoculated by injection of 1×10^7 NUGC-4˜CLDN18.2 cells subcutaneous into the flank of 10 nude mice (female, six weeks old) per treatment group. Mice were treated on day 3, 10, 17 and 24 with chemotherapeutic agents. IMAB362 treatment was continued weekly.

Substance: IMAB362: chimeric IgG1 antibody directed against CLDN18.2, developed by Ganymed Pharmaceuticals AG
- tumor growth compared to controls ([1]; 200 μg twice weekly, starting 6 days after inoculation, p<0.05): significant inhibited
- median survival time ([1]; non-significantly increased, versus 25 days): 31 days
- tumor volumes at day 21 after tumor inoculation compared to control mice ([1]; p<0.05): significant smaller
- tumor growth rate ([1]; treatment initiated at mean tumor size about 109 mm^3): significantly reduce tumor growth rate
- mice surviving the entire observation period of 210 days [2]: 4 of 10
- survival ([2]; start 3 days after inoculation): survival benefit
- gastric toxicity ([3]; any toxicity study): no gastric toxicity
- adverse effects on male or female reproductive organs ([3]; in vivo): No adverse effects
- binding to tissues lacking the target ([3]; in vivo): does not bind
- immune activation and cytokine release ([3]; in vivo): does not induce
- systemic or local toxicity ([3]; repeated doses i.v., mice and cynomolgus monkeys): No signs of systemic or local toxicity
- tumor growth compared to saline treated control group [4]: inhibited significantly the tumor growth

Source: patent US20180258180A1, “COMBINATION THERAPY INVOLVING ANTIBODIES AGAINST CLAUDIN 18.2 FOR TREATMENT OF CANCER” (Ganymed Pharmaceuticals AG, priority 2012, published 2018)
